Measured values taken from article PMC11024197 (Nature Communications, 2024).
Where two headings read alike, the source gives them in different places.

Legend:
PEX14 NTD [1] = target: T1, PEX14 NTD (Homo sapiens, UniProt O75381); settings: SD, n = 3; read-out: KD (µM) (Suppl. Table 2); KD (nM) (Suppl. Table 4)
T1 construct: PEX14 NTD (1-104), expressed in E. coli with His6-SUMO tag, cleaved
Experimental: Isothermal titration calorimetry (ITC) measurements were performed as triplicates at 25 °C using a MicroCal PEAQ-ITC (Malvern Instruments Ltd. U.K) calorimeter. Buffer conditions were 20 mM Tris pH 7.5, 50 mM NaCl. For all titrations a titrant dilution control experiment was performed and subtracted before the data were fitted to a one-site binding model using the Malvern Analysis software.
PEX13 SH3 at a concentration of 35-48 µM was titrated with purchased 15mer peptides containing (di)aromatic penta peptides from PEX5 or PEX5 1-76 (W0) at concentration of 0.7-0.6 mM and PEX13 350-403 (FxxxF) at a concentration of 0.9-1 mM. […] The concentration of PEX14 was corrected with the fit, since it cannot be accurate measured at 280 nm owing to the extinction coefficient of only 1490.

PEX14 NTD [2] = target: T1, PEX14 NTD; set-up: method as in values quoted from other papers; settings: cited from earlier work

T1 sequence (O75381 1-104): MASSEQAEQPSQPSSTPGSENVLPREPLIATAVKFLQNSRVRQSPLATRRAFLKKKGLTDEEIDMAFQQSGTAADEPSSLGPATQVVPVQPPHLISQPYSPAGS

Substance | Kd (PEX14 NTD [1]) [µM] | Kd (PEX14 NTD [2]) [µM]
PEX5 1-76 (contains […]) [PEX5 W0] | 0.0551 | 
PEX13 residues 261-403 [PEX13 SH3-CTR] | 5.4 | 
PEX19 FxxxF motif (66-77 SQEKFFQELFDS in Fig. 3b; exact ligand of cited work not printed) |  | 9.2
